Source: US9326513B2, “Fungicidal compositions” (Syngenta Participations AG, priority 2011, dated 2016)
Where two headings read alike, the source gives them in different places.

Key:
Format in all cases: cell-based
Botrytis cinerea = Botrytis cinerea (gray mould), PDB microtiter plate, visual after 72 hrs
[1] = tested on: Monographella nivalis (syn. Microdochium nivale, Fusarium nivale); test: Monographella nivalis (snow mould, foot rot of cereals), PDB microtiter plate, visual after 72 hrs
Septoria tritici = Septoria tritici (leaf blotch), PDB microtiter plate, visual after 72 hrs; conditions: single compound
[2] = Botrytis cinerea, alone, rate 0.625 ppm
[3] = Botrytis cinerea, alone, rate 1.25 ppm
[4] = Botrytis cinerea, alone, rate 2.5 ppm, read-out: Activity (%)
[5] = Monographella nivalis, applied alone, rate 0.3125 ppm
[6] = Monographella nivalis, applied alone, rate 0.625 ppm
[7] = Monographella nivalis, applied alone, rate 1.25 ppm
[8] = Monographella nivalis, applied alone, rate 2.5 ppm
[9] = Monographella nivalis, single compound, rate 5 ppm

In the case of O=C(O)COc1ccc(Cl)cc1Cl [2,4-D], the “Activity (%)” value (Botrytis cinerea; alone, rate 2.5 ppm) is reported as 0%, the “Activity (%)” value (Botrytis cinerea; alone, rate 5 ppm) is reported as 0% and the “Activity (%)” value (Botrytis cinerea; alone, rate 10 ppm) is reported as 0%. For the same molecule, the “Activity (%)” value ([1]; applied alone, 0.625 ppm) was 0%, the “Activity (%)” value ([1]; applied alone, 1.25 ppm) was 0% and the “Activity (%)” value ([1]; applied alone, 2.5 ppm) was 0%. The “Activity (%)” value ([1]; applied alone, 5 ppm) was 0%, the “Activity (%)” value ([1]; applied alone, 10 ppm) was 0% and the “Activity (%)” value ([1]; applied alone, rate 0.3125 ppm) was 0%. For the same molecule, the “Activity (%)” value ([1]; applied alone, rate 0.625 ppm) was 0%, the “Activity (%)” value ([1]; applied alone, rate 1.25 ppm) was 0% and the “Activity (%)” value ([1]; applied alone, rate 2.5 ppm) was 0%.
Molecule CS(=O)(=O)c1ccc(C(=O)C2C(=O)CCCC2=O)c([N+](=O)[O-])c1 [Mesotrione] has an inhibition at 0.625 ppm (Botrytis cinerea; [2]) of 0%, an inhibition at 1.25 ppm (Botrytis cinerea; [3]) of 0% and an inhibition at 2.5 ppm (Botrytis cinerea; [4]) of 0%. It also gave an inhibition at 5 ppm (Botrytis cinerea; Botrytis cinerea, alone, rate 5 ppm, read-out: Activity (%)) of 0%, an inhibition at 10 ppm (Botrytis cinerea; Botrytis cinerea, alone, rate 10 ppm, read-out: Activity (%)) of 0% and an inhibition at 2.5 ppm ([1]; Monographella nivalis, applied alone, 2.5 ppm) of 0%. It also gave an inhibition at 5 ppm ([1]; Monographella nivalis, applied alone, 5 ppm) of 0%, an inhibition at 0.078125 ppm ([1]; Monographella nivalis, applied alone, rate 0.078125 ppm) of 0% and an inhibition at 0.15625 ppm ([1]; Monographella nivalis, applied alone, rate 0.15625 ppm) of 0%. For the same molecule, the inhibition at 0.3125 ppm [1, 5] was 0%, the inhibition at 0.625 ppm [1, 6] was 0% and the inhibition at 1.25 ppm [1, 7] was 0%. For the same molecule, the inhibition at 2.5 ppm [1, 8] was 0%, the inhibition at 10 ppm ([1]; Monographella nivalis, single compound, rate 10 ppm) was 0% and the inhibition at 20 ppm ([1]; Monographella nivalis, single compound, rate 20 ppm) was 0%. The inhibition at 5 ppm [1, 9] was 0%.
In the case of CC(C)C1C2CCC1c1c(NC(=O)c3cn(C)nc3C(F)F)cccc12 (stereo not drawn) [Isopyrazam], the “Activity (%)” value (Septoria tritici; 0.015625 ppm) is reported as 0% and the “Activity (%)” value (Septoria tritici; 0.03125 ppm) is reported as 20%.
For CP(=O)(O)CCC(N)C(=O)O (stereo not drawn) [Glufosinate], the inhibition at 2.5 ppm (Botrytis cinerea; Botrytis cinerea, read-out: Activity (%), alone, rate 2.5 ppm) was 0%, the inhibition at 5 ppm (Botrytis cinerea; Botrytis cinerea, read-out: Activity (%), alone, rate 5 ppm) was 0% and the inhibition at 10 ppm (Botrytis cinerea; Botrytis cinerea, read-out: Activity (%), alone, rate 10 ppm) was 0%. For the same molecule, the inhibition at 20 ppm (Botrytis cinerea; Botrytis cinerea, read-out: Activity (%), alone, rate 20 ppm) was 0%, the inhibition at 0.3125 ppm [1, 5] was 0% and the inhibition at 0.625 ppm [1, 6] was 0%. It also gave an inhibition at 1.25 ppm [1, 7] of 0%, an inhibition at 2.5 ppm [1, 8] of 0% and an inhibition at 5 ppm [1, 9] of 0%.
With CN1COCN(Cc2cnc(Cl)s2)/C1=N\[N+](=O)[O-] [Thiamethoxam] the inhibition at 0.625 ppm (Botrytis cinerea; [2]) was 0%, the inhibition at 1.25 ppm (Botrytis cinerea; [3]) was 0% and the inhibition at 2.5 ppm (Botrytis cinerea; [4]) was 0%. It also gave an inhibition at 0.3125 ppm [1, 5] of 0%, an inhibition at 0.625 ppm [1, 6] of 0% and an inhibition at 2.5 ppm [1, 8] of 0%. It also gave an inhibition at 5 ppm ([1]; Monographella nivalis, applied alone, rate 5 ppm) of 0%.
In the case of Cc1nn(C)c(F)c1C(=O)Nc1ccccc1C(C)CC(C)C (stereo not drawn) [Penflufen], the “Activity (%)” value (Septoria tritici; 0.125 ppm) is reported as 0%, the “Activity (%)” value (Septoria tritici; 0.25 ppm) is reported as 20% and the “Activity (%)” value (Septoria tritici; 0.5 ppm) is reported as 70%. For the same molecule, the “Activity (%)” value ([1]; applied alone, 0.5 ppm) was 0%, the “Activity (%)” value ([1]; applied alone, 1 ppm) was 20% and the “Activity (%)” value ([1]; applied alone, rate 0.5 ppm) was 0%. The “Activity (%)” value ([1]; applied alone, rate 1 ppm) was 20%.
For CC/C=C\CC1=C(C)CCC1=O [cis-Jasmone], the “Activity (%)” value (Botrytis cinerea; alone, rate 0.625 ppm) was 0%, the “Activity (%)” value (Botrytis cinerea; alone, rate 1.25 ppm) was 0% and the “Activity (%)” value (Botrytis cinerea; alone, rate 2.5 ppm) was 0%. For the same molecule, the “Activity (%)” value (Botrytis cinerea; alone, rate 5 ppm) was 0%, the “Activity (%)” value ([1]; applied alone, 0.625 ppm) was 0% and the “Activity (%)” value ([1]; applied alone, 1.25 ppm) was 0%. For the same molecule, the “Activity (%)” value ([1]; applied alone, 2.5 ppm) was 0%, the “Activity (%)” value ([1]; applied alone, 5 ppm) was 0% and the “Activity (%)” value ([1]; applied alone, rate 0.15625 ppm) was 0%. For the same molecule, the “Activity (%)” value ([1]; applied alone, rate 0.3125 ppm) was 0%, the “Activity (%)” value ([1]; applied alone, rate 0.625 ppm) was 0% and the “Activity (%)” value ([1]; applied alone, rate 1.25 ppm) was 0%.
With CO/C=C(/C(=O)OC)c1ccccc1COc1cccc(C(F)(F)F)n1 [Picoxystrobin] the “Activity (%)” value (Botrytis cinerea; alone, rate 0.25 ppm) was 50%, the “Activity (%)” value (Botrytis cinerea; alone, rate 0.5 ppm) was 50% and the “Activity (%)” value (Botrytis cinerea; alone, rate 1 ppm) was 50%. For the same molecule, the “Activity (%)” value (Botrytis cinerea; alone, rate 2 ppm) was 50%, the “Activity (%)” value (Septoria tritici; 0.015625 ppm) was 70% and the “Activity (%)” value (Septoria tritici; 0.03125 ppm) was 90%.
With COC(=O)N(OC)c1ccccc1COc1ccn(-c2ccc(Cl)cc2)n1 [Pyraclostrobin] the inhibition at 0.025 ppm (Botrytis cinerea; Botrytis cinerea, alone, rate 0.025 ppm) was 0%, the inhibition at 0.05 ppm (Botrytis cinerea; Botrytis cinerea, alone, rate 0.05 ppm) was 0% and the inhibition at 0.1 ppm (Botrytis cinerea; Botrytis cinerea, alone, rate 0.1 ppm) was 0%. For the same molecule, the inhibition at 0.2 ppm (Botrytis cinerea; Botrytis cinerea, alone, rate 0.2 ppm) was 20%, the inhibition at 0.25 ppm (Botrytis cinerea; Botrytis cinerea, alone, rate 0.25 ppm) was 50% and the inhibition at 2 ppm (Botrytis cinerea; Botrytis cinerea, alone, rate 2 ppm) was 70%. For the same molecule, the inhibition at 0.0015625 ppm ([1]; Monographella nivalis, applied alone, rate 0.0015625 ppm) was 0%, the inhibition at 0.003125 ppm ([1]; Monographella nivalis, applied alone, rate 0.003125 ppm) was 0% and the inhibition at 0.00625 ppm ([1]; Monographella nivalis, single compound, rate 0.00625 ppm) was 0%. The inhibition at 0.0125 ppm ([1]; Monographella nivalis, single compound, rate 0.0125 ppm) was 50%.
